Laboratory results taken from BindingDB's records for doi:10.1016/s0960-894x(03)00474-8 (Merck Research Laboratories, 2003).
pIC50: −log10 of the molar value.

Biological target: T1, Dimer of Gag-Pol polyprotein [489-587,Q496K] (Human immunodeficiency virus 1, UniProt P12497, Q496K)
T1 construct: 489-587
Assay: Protease Inhibition Assay
Settings: pH 5.5; 30 °C
Procedure: Assay of HIV protease inhibition was performed by peptide cleavage using the substrate Val-Ser-Gln-Asn-beta-naphthylalanine*Pro-Ile-Val. Products of the cleavage reaction were quantified by HPLC detection, and data were fit to nonlinear least squares equations for determination of steady-state Michaelis-Menten kinetics.

Compound | pIC50
CC(C)(c1ccc(-c2ccncc2)o1)N1CCN(C[C@@H](O)C[C@@H](Cc2ccccc2)C(=O)N[C@H]2c3ccccc3OC[C@H]2O)[C@H](C(=O)NCC(F)(F)F)C1 [(2S)-1-[(2S,4R)-4-benzyl-2-hydroxy-4-{[(3S,4S)-3-hydroxy-3,4-dihydro-2H-1-benzopyran-4-yl]carbamoyl}butyl]-4-{2-[5-(pyridin-4-yl)furan-2-yl]propan-2-yl}-N-(2,2,2-trifluoroethyl)piperazine-2-carboxamide] | 10.30
CC(C)(c1ncc(-c2cncc(Cl)c2)o1)N1CCN(C[C@@H](O)C[C@@H](Cc2ccccc2)C(=O)N[C@H]2c3ccccc3OC[C@H]2O)[C@H](C(=O)NCC(F)(F)F)C1 [(2S)-1-[(2S,4R)-4-benzyl-2-hydroxy-4-{[(3S,4S)-3-hydroxy-3,4-dihydro-2H-1-benzopyran-4-yl]carbamoyl}butyl]-4-{2-[5-(5-chloropyridin-3-yl)-1,3-oxazol-2-yl]propan-2-yl}-N-(2,2,2-trifluoroethyl)piperazine-2-carboxamide] | 10.70
